Assay results reported in US9216169B2, “Pharmaceutical composition comprising candesartan or ester thereof and chlortalidone, and use thereof” (TIANJIN INSTITUTE OF PHARMACEUTICAL RESEARCH, priority 2011, dated 2015).

Assays:
[1] = system: Spontaneously hypertensive rats (SHR); assay: SBP of SHR by Tail-Cuff method, continuous intragastric administration for 8 days (Examples 1-7); assay type: in vivo, rat
Method: Spontaneously hypertensive rats (SHR), male, are provided by Beijing Vital River Laboratory Animal Technology Co., Ltd. The number of animal production license is SCXK (Jing) 2007-0001. Animals are raised in an observation room at the room temperature of 25±2° C. controlled by central air-conditioning system and with artificial lighting of 12 h/day. The animals are raised in separate cages sized 43×27×18 cm with 4 animals for each cage. The rats are free access to water and are fed with block fodder everyday, and the water supply is refreshed once a day. The temperature of the room for measuring the blood pressure is 26±2° C.
The blood pressure is measured by Tail-Cuff method and the hear rate is measured according to the pulse frequency. Animals are pre-trained for the blood pressure measurement for more than 2 weeks so as to adapt to the environment of measurement. Animals are placed in a isothermal bag at 37° C. to be prewarmed for 5 to 10 min for formal measurement. Blood pressures of the rats are measured from tail arteries for 2 to 3 times at rest states, and an average value is taken as each blood pressure measured value. All data are collected and preserved by a computer.
SHRs with systolic blood pressures (SBPs) >190 mmHg are selected for experiment.
Rats are randomly divided into 14 groups according to their blood pressures with each group having 7 rats. Animals are fasted overnight and measured for the blood pressure of pre-administration at the day of experiment, and then administered drugs in accordance with the following method:
The single-drug group is intragastrically administered candesartan (Can) or chlorthalidone (Chl), with the dosage of Can of 0.36 mg/kg and the dosages of Chl of 0.0675, 0.36, 0.54, 0.72, 1.125 and 2.25 mg/kg respectively;
The pharmaceutical composition is administered with 6 different doses (denoted by F1, F2, F3, F4, F5 and F6 respectively). Specifically, the ratios of the dosages of Can+Chl in all pharmaceutical compositions are:
The administration volumes are all 5 ml/kg.
Rats are continuously administered for 8 days. SBPs are measured 2, 4, 8, 12 and 24 hours after the last administration. The area under blood pressure reduction-time curve from 0 to 24 h (AUC0-24) and the maximum blood pressure reduction value are calculated.
The calculated results are expressed as mean±standard error ( x±SE); statistical treatment is performed using unpaired t test between groups to compare the significance of the average difference; the interaction between drugs are determined by using factorial analysis of variance, and P<0.05 means the difference has statistical significance.

[2] = clinical studies; cited from earlier work
[3] = cited from earlier work
[4] = system: Spontaneously hypertensive rats (SHR); assay: SBP of SHR by Tail-Cuff method, first administration and continuous administration for 14 days (Examples 8-12); assay type: in vivo, rat
patients = conditions: study in 1714 patients; cited from earlier work
[5] = Chl 0.0675 mg/kg i.g. 8 days, 2 h after last administration
[6] = Chl 0.0675 mg/kg i.g. 8 days, 4 h after last administration
[7] = Chl 0.0675 mg/kg i.g. 8 days, 8 h after last administration
[8] = Chl 0.0675 mg/kg i.g. 8 days, 12 h after last administration
[9] = Chl 0.0675 mg/kg i.g. 8 days, 24 h after last administration
[10] = Chl 0.0675 mg/kg i.g. 8 days, pre-administration
[11] = Chl 0.36 mg/kg i.g. 8 days (Table 2), 2 h after last administration
[12] = Chl 0.36 mg/kg i.g. 8 days (Table 2), 4 h after last administration
[13] = Chl 0.36 mg/kg i.g. 8 days (Table 2), 8 h after last administration
[14] = Chl 0.36 mg/kg i.g. 8 days (Table 2), 12 h after last administration
[15] = Chl 0.36 mg/kg i.g. 8 days (Table 2), 24 h after last administration
[16] = Chl 0.36 mg/kg i.g. 8 days (Table 2), pre-administration
[17] = Chl 1.125 mg/kg i.g. 8 days, 2 h after last administration
[18] = Chl 1.125 mg/kg i.g. 8 days, 4 h after last administration
[19] = Chl 1.125 mg/kg i.g. 8 days, 8 h after last administration
[20] = Chl 1.125 mg/kg i.g. 8 days, 12 h after last administration
[21] = Chl 1.125 mg/kg i.g. 8 days, 24 h after last administration
[22] = Chl 1.125 mg/kg i.g. 8 days, pre-administration
[23] = Chl 2.25 mg/kg i.g. 8 days, 2 h after last administration
[24] = Chl 2.25 mg/kg i.g. 8 days, 4 h after last administration
[25] = Chl 2.25 mg/kg i.g. 8 days, 8 h after last administration
[26] = Chl 2.25 mg/kg i.g. 8 days, 12 h after last administration
[27] = Chl 2.25 mg/kg i.g. 8 days, 24 h after last administration
[28] = Chl 2.25 mg/kg i.g. 8 days, pre-administration
[29] = Chl, dosage 0.36 mg/kg in Table 3 (Example 3 title: 0.54 mg/kg), i.g. 8 days, 2 h after last administration
[30] = Chl, dosage 0.36 mg/kg in Table 3 (Example 3 title: 0.54 mg/kg), i.g. 8 days, 4 h after last administration
[31] = Chl, dosage 0.36 mg/kg in Table 3 (Example 3 title: 0.54 mg/kg), i.g. 8 days, 8 h after last administration
[32] = Chl, dosage 0.36 mg/kg in Table 3 (Example 3 title: 0.54 mg/kg), i.g. 8 days, 12 h after last administration
[33] = Chl, dosage 0.36 mg/kg in Table 3 (Example 3 title: 0.54 mg/kg), i.g. 8 days, 24 h after last administration
[34] = Chl, dosage 0.36 mg/kg in Table 3 (Example 3 title: 0.54 mg/kg), i.g. 8 days, pre-administration
[35] = Chl, dosage 0.36 mg/kg in Table 4 (Example 4 title: 0.72 mg/kg), i.g. 8 days, 2 h after last administration
[36] = Chl, dosage 0.36 mg/kg in Table 4 (Example 4 title: 0.72 mg/kg), i.g. 8 days, 4 h after last administration
[37] = Chl, dosage 0.36 mg/kg in Table 4 (Example 4 title: 0.72 mg/kg), i.g. 8 days, 8 h after last administration
[38] = Chl, dosage 0.36 mg/kg in Table 4 (Example 4 title: 0.72 mg/kg), i.g. 8 days, 12 h after last administration
[39] = Chl, dosage 0.36 mg/kg in Table 4 (Example 4 title: 0.72 mg/kg), i.g. 8 days, 24 h after last administration
[40] = Chl, dosage 0.36 mg/kg in Table 4 (Example 4 title: 0.72 mg/kg), i.g. 8 days, pre-administration
[41] = 12.5-25 mg/d of chlorthalidone, clinical studies

Structure (SMILES): NS(=O)(=O)c1cc(C2(O)NC(=O)c3ccccc32)ccc1Cl (stereo not drawn) [Chl, Chlorthalidone]
- antihypertensive effect after the administration ([1]; Chl 0.0675 mg/kg): no significant antihypertensive effect
- AUC0-24h (area under blood pressure reduction-time curve) ([1]; Chl 0.0675 mg/kg i.g. 8 days): −9.0 mmHg · h
- maximum reduction of the blood pressure ([1]; Chl 0.0675 mg/kg i.g. 8 days): −4.7 mmHg
- SBP [1, 5]: 203 mmHg
- SBP difference value compared with the basic value [1, 5]: (−2.1 mmHg
- SBP [1, 6]: 206 mmHg
- SBP difference value compared with the basic value [1, 6]: (0.6 mmHg
- SBP [1, 7]: 204 mmHg
- SBP difference value compared with the basic value [1, 7]: (−1.4 mmHg
- SBP [1, 8]: 203 mmHg
- SBP difference value compared with the basic value [1, 8]: (−2.0 mmHg
- SBP [1, 9]: 207 mmHg
- SBP difference value compared with the basic value [1, 9]: (2.1 mmHg
- SBP [1, 10]: 208 mmHg
- SBP difference value compared with the basic value [1, 10]: (2.3 mmHg
- AUC0-24h (area under blood pressure reduction-time curve) ([1]; Chl 0.36 mg/kg i.g. 8 days): −26.0 mmHg · h
- maximum reduction of the blood pressure ([1]; Chl 0.36 mg/kg i.g. 8 days): −3.7 mmHg
- SBP [1, 11]: 205 mmHg
- SBP difference value compared with the basic value [1, 11]: (−0.6 mmHg
- SBP [1, 12]: 204 mmHg
- SBP difference value compared with the basic value [1, 12]: (−1.3 mmHg
- SBP [1, 13]: 204 mmHg
- SBP difference value compared with the basic value [1, 13]: (−1.3 mmHg
- SBP [1, 14]: 204 mmHg
- SBP difference value compared with the basic value [1, 14]: (−1.4 mmHg
- SBP [1, 15]: 205 mmHg
- SBP difference value compared with the basic value [1, 15]: (−0.4 mmHg
- SBP [1, 16]: 204 mmHg
- SBP difference value compared with the basic value [1, 16]: (−1.4 mmHg
- AUC0-24h (area under blood pressure reduction-time curve) ([1]; Chl 0.54 mg/kg i.g. 8 days): −57.0 mmHg · h
- maximum reduction of the blood pressure ([1]; Chl 0.54 mg/kg i.g. 8 days): −4.7 mmHg
- AUC0-24h (area under blood pressure reduction-time curve) ([1]; Chl 0.72 mg/kg i.g. 8 days): −79.0 mmHg · h
- maximum reduction of the blood pressure ([1]; Chl 0.72 mg/kg i.g. 8 days): −5.7 mmHg
- time after administration at which an antihypertensive effect is seen ([1]; Chl 1.125 mg/kg): 4 h
- AUC0-24h (area under blood pressure reduction-time curve) ([1]; Chl 1.125 mg/kg i.g. 8 days): −110.0 mmHg · h
- maximum reduction of the blood pressure ([1]; Chl 1.125 mg/kg i.g. 8 days): −12.0 mmHg
- SBP [1, 17]: 205 mmHg
- SBP difference value compared with the basic value [1, 17]: (−2.9 mmHg
- SBP [1, 18]: 199 mmHg
- SBP difference value compared with the basic value [1, 18]: (−8.9 mmHg
- SBP [1, 19]: 201 mmHg
- SBP difference value compared with the basic value [1, 19]: (−6.3 mmHg
- SBP [1, 20]: 202 mmHg
- SBP difference value compared with the basic value [1, 20]: (−6.0 mmHg
- SBP [1, 21]: 207 mmHg
- SBP difference value compared with the basic value [1, 21]: (−0.4 mmHg
- SBP [1, 22]: 206 mmHg
- SBP difference value compared with the basic value [1, 22]: (−1.7 mmHg
- period after administration with significant antihypertensive effect ([1]; Chl 2.25 mg/kg): 2 to 12 h
- AUC0-24h (area under blood pressure reduction-time curve) ([1]; Chl 2.25 mg/kg i.g. 8 days): −199.0 mmHg · h
- maximum reduction of the blood pressure ([1]; Chl 2.25 mg/kg i.g. 8 days): −15.0 mmHg
- SBP [1, 23]: 198 mmHg
- SBP difference value compared with the basic value [1, 23]: (−8.3 mmHg
- SBP [1, 24]: 192 mmHg
- SBP difference value compared with the basic value [1, 24]: (−11.3 mmHg
- SBP [1, 25]: 195 mmHg
- SBP difference value compared with the basic value [1, 25]: (−11.1 mmHg
- SBP [1, 26]: 197 mmHg
- SBP difference value compared with the basic value [1, 26]: (−9.4 mmHg
- SBP [1, 27]: 202 mmHg
- SBP difference value compared with the basic value [1, 27]: (−4.6 mmHg
- SBP [1, 28]: 205 mmHg
- SBP difference value compared with the basic value [1, 28]: (−1.3 mmHg
- influence on the maximum reduction of SBP and the AUC compared with the blank control group ([1]; Chl 0.0675, 0.36, 0.54 and 0.72 mg/kg): no significant influence
- influence on the maximum reduction of SBP and the AUC compared with the blank control group ([1]; Chl 1.125 and 2.25 mg/kg): significant decrease
- SBP [1, 29]: 202 mmHg
- SBP difference value compared with the basic value [1, 29]: (−2.0 mmHg
- SBP [1, 30]: 202 mmHg
- SBP difference value compared with the basic value [1, 30]: (−2.0 mmHg
- SBP [1, 31]: 201 mmHg
- SBP difference value compared with the basic value [1, 31]: (−3.7 mmHg
- SBP [1, 32]: 203 mmHg
- SBP difference value compared with the basic value [1, 32]: (−1.9 mmHg
- SBP [1, 33]: 202 mmHg
- SBP difference value compared with the basic value [1, 33]: (−2.6 mmHg
- SBP [1, 34]: 203 mmHg
- SBP difference value compared with the basic value [1, 34]: (−1.6 mmHg
- SBP [1, 35]: 203 mmHg
- SBP difference value compared with the basic value [1, 35]: (−3.9 mmHg
- SBP [1, 36]: 202 mmHg
- SBP difference value compared with the basic value [1, 36]: (−4.9 mmHg
- SBP [1, 37]: 202 mmHg
- SBP difference value compared with the basic value [1, 37]: (−4.9 mmHg
- SBP [1, 38]: 205 mmHg
- SBP difference value compared with the basic value [1, 38]: (−2.6 mmHg
- SBP [1, 39]: 205 mmHg
- SBP difference value compared with the basic value [1, 39]: (−2.4 mmHg
- SBP [1, 40]: 205 mmHg
- SBP difference value compared with the basic value [1, 40]: (−2.3 mmHg
- valid control rate of blood pressure [2]: 68.2%
- lowering of 24-hour blood pressure [3, 41]: 12.4 mmHg
- lowering of night-time blood pressure [3, 41]: 13.5 mmHg
- antihypertensive efficacy relative to that of hydrochlorothiazide ([3]; according to Khoska): 1.5-2 times
- AUC0-14d ([4]; Chl 0.15625 mg/kg i.g. for 14 days): −36.0 mmHg · d
- AUC0-24h ([4]; Chl 0.15625 mg/kg i.g., after first administration): −47.0 mmHg · h
- reduction of SBP compared with the basic value (patients): 12.7-15.9 mmHg
